Our source for the IC50 values is US11497785B2, “Oral anti-parasitic composition” (Mars, Incorporated, priority 2013, dated 2022).

The subject of this assay is Neospora caninum. Nature of the assay: Proliferation assay of Neospora caninum in HFF cells, tritiated uracil incorporation. Type of assay: cell-based. As to conditions: positive control, read-out: ICSO. How it is done:
In order to solubilize the essential oils, the oils were diluted in dimethyl sulfoxide (DMSO) and then spread in the cell culture medium (DMEM) that was supplemented with 10% fetal calf serum (D10). DMSO was also used at a final concentration not exceeding 0.1%. Separate cultures of both parasites, Toxoplasma gondii and Neospora caninum, were prepared in vitro in human cell type HFF (Human Foreskin Fibroblasts), grown at 37° C. under 5% CO2 in a D10 medium. Both cultures were similar, the inoculum used for the various tests were the same, […] per well. It was observed that growing Neospora caninum is slower than that of Toxoplasma gondii.
Proliferation of the parasite in the cells is measured by counting the specific radioactivity of the incorporated tritiated uracil and compared to the control without essential oil (100% proliferation). The test is performed in 24-well plates and the whole test lasts about 24 hours. The positive control is achieved using pyrimethamine (ICSO: 0.1 μg/mL).
Values represent inhibition of proliferation.
The inhibition of proliferation was measured by incorporating tritiated uracil in both Toxoplasma gondii and Neospora caninum and the viability of HFF cells was assessed using MTT assay.

Molecules are shown by their SMILES. Values after ≈ are worked out from the molar mass of the structure shown.

`CCc1nc(N)nc(N)c1-c1ccc(Cl)cc1` [pyrimethamine]: the IC50 worked out at 0.1 µg/mL (≈ 0.402 µM).
